Assay results from patent publication US10562857B2 (AFASCI, Inc., priority 2015, dated 2020).
pIC50: −log10 of the molar value.

What was measured:
Cav3.3 = molecular target: T1, Cav3.3 (Homo sapiens, UniProt Q9P0X4); experiment: Whole-cell patch clamp of T-type Cav3.3 channel expressed in HEK293 cells; format: cell-based; conditions: Table 2
T1 construct: expressed in transfected cells; host or cells: HEK-293, tetracycline inducible expression system (Invitrogen)
Method: (§1) Cav3.1, Cav3.2 or Cav3.3 channels were expressed in human embryonic kidney (HEK)-293 cells using a tetracycline inducible expression system (Invitrogen). Cells were maintained in 25 cm^2 tissue culture flasks at 37° C., 5% CO2, and 100% relative humidity in D-MEM/F12 (Dulbecco's Modified Eagle Medium/Nutrient Mixture F-12; Gibco) supplemented with fetal bovine serum (FBS, 10% v/v), sodium pyruvate (0.5 mM, Gibco), penicillin-streptomycin (100 U/mL, 100 μg/mL) and Geneticin® Selective antibiotic (G418; 0.5 mg/mL). Cells were detached from the flask base using a non-enzymatic cell dissociation solution (Cellstripper, Corning), removed and re-seeded on to poly-D-lysine coated glass coverslips in 35 mm dishes.
(§2) Whole-cell voltage clamp recordings were performed on rat or mouse DRG neurons within 2 days after acutely dissociation or cultured HEK293 cells expressing T-type channels (encoded by Cav3.1, Cav3.2 or Cav3.3 channels). All experiments were performed at room temperature (around 21° C.). Whole-cell currents were recorded using a MultiClamp 700B amplifier and analyzed offline with pCLAMP10.4 software (Molecular Devices, LLC, Sunnyvale Calif., USA). […] Since the sodium ions were absent in the external solution, tetrodoctoxin was not needed. Calcium currents were recorded at a holding potential of −100 mV and then depolarized to −30 mV for 100 ms to activate either Cav3.1, Cav3.2, or Cav3.3 expressed in HEK cells. An interpulse interval of 10 seconds allowed the channel recovery from inactivation, and achieved stable current recordings. To record sodium (Na^+) currents in DRG neurons, the external solution used the modified Krebs solution specified above. The internal solution was composed (in mM) of 120 CsF, 10 HEPES, 11 EGTA, 1 CaCl2, 1 MgCl2, 10 TEA-Cl, 4 MgATP and 0.3 MgGTP (pH 7.3-7.4 adjusted with CsOH). […] To record potassium currents in DRG neurons, the external solution used the modified Kreb's solution specified above. The internal solution was composed (in mM) of 65 KCl, 80 KF, 5 KOH, 10 EGTA, 2 MgATP (pH 7.3-7.4 adjusted with KOH). Recording electrodes were fabricated using a P-87 puller (Sutter Instrument Co., Novato, Calif., USA). The tip of resistance was 3-4 MQ in bath and the series resistance was less than 10 MΩ after whole cell configuration. All reagents were purchased from Sigma unless specified otherwise. Test compounds were usually applied via a rapid solution exchange system with 8 fine polyplastic tubings (100 μm, OD) glued in a holder in parallel and located closely to the recorded cells. The current responses were normalized to the control, percent inhibition was calculated and sigmoidal dose-response curves were generated using XLFit (IDBS, Surrey, UK) or Prism (GraphPad Software, La Jolla, Calif., US) to calculate IC50 values and Hill slopes using the following equation Y=Bottom+(Top−Bottom)/(1+10^((Log EC50−X)[…])).

[1] = system: PTZ-induced seizures in mice; experiment: Pentylenetetrazol (PTZ)-induced seizures in mice; format: in vivo, mouse; conditions: 30 mg/kg I.P., PTZ 40 mg/kg I.P.; for fatality latency / fatality rate: 20 min cutoff
Method: FIG. 10. […] Sixty minutes (min) prior to receiving PTZ (40 mg/kg, I.P.), each mouse was pretreated with either an Example compound, ML218, Z944 or vehicle (2% DMSO in 0.5% HPC). Fatality rate (%) of mice in each group that dies within the 20 minutes observation period—was calculated. Both fatality rate and latency (data not shown) to death were used to evaluate the Example compound's ability to prevent death resulting from PTZ-induced seizures. A cutoff of 20 minutes was set for observational and statistical analysis purposes.
It is well known that antiepileptics, e.g. carbamazepine, lamotrigine and gabapentin are used for the treatment of neuropathic pain (Xie et al., 1995, Caviedes and Herranz, 2001). T-channel overactivation is involved in the generation of seizure activity (Huguenard, 1998, Cribbs et al., 2000, Perez-Reyes et al., 2009, Perez-Reyes, 2010). […] Fatality latency and rate—the percentage (%) of mice in each treatment group that died within a 20 minute cutoff of the observational period, were recorded and calculated. Averaged fatality latency and rate of each treatment group was used to evaluate the Example compound's ability to either prevent or delay the onset of PTZ-induced seizures and death.

Cav3.1 = molecular target: T2, Cav3.1 (Homo sapiens, UniProt O43497); experiment: Whole-cell patch clamp of T-type Cav3.1 channel expressed in HEK293 cells; format: cell-based; conditions: Table 2
T2 construct: expressed in transfected cells; host or cells: HEK-293, tetracycline inducible expression system (Invitrogen)
T2 sequence (O43497 whole entry): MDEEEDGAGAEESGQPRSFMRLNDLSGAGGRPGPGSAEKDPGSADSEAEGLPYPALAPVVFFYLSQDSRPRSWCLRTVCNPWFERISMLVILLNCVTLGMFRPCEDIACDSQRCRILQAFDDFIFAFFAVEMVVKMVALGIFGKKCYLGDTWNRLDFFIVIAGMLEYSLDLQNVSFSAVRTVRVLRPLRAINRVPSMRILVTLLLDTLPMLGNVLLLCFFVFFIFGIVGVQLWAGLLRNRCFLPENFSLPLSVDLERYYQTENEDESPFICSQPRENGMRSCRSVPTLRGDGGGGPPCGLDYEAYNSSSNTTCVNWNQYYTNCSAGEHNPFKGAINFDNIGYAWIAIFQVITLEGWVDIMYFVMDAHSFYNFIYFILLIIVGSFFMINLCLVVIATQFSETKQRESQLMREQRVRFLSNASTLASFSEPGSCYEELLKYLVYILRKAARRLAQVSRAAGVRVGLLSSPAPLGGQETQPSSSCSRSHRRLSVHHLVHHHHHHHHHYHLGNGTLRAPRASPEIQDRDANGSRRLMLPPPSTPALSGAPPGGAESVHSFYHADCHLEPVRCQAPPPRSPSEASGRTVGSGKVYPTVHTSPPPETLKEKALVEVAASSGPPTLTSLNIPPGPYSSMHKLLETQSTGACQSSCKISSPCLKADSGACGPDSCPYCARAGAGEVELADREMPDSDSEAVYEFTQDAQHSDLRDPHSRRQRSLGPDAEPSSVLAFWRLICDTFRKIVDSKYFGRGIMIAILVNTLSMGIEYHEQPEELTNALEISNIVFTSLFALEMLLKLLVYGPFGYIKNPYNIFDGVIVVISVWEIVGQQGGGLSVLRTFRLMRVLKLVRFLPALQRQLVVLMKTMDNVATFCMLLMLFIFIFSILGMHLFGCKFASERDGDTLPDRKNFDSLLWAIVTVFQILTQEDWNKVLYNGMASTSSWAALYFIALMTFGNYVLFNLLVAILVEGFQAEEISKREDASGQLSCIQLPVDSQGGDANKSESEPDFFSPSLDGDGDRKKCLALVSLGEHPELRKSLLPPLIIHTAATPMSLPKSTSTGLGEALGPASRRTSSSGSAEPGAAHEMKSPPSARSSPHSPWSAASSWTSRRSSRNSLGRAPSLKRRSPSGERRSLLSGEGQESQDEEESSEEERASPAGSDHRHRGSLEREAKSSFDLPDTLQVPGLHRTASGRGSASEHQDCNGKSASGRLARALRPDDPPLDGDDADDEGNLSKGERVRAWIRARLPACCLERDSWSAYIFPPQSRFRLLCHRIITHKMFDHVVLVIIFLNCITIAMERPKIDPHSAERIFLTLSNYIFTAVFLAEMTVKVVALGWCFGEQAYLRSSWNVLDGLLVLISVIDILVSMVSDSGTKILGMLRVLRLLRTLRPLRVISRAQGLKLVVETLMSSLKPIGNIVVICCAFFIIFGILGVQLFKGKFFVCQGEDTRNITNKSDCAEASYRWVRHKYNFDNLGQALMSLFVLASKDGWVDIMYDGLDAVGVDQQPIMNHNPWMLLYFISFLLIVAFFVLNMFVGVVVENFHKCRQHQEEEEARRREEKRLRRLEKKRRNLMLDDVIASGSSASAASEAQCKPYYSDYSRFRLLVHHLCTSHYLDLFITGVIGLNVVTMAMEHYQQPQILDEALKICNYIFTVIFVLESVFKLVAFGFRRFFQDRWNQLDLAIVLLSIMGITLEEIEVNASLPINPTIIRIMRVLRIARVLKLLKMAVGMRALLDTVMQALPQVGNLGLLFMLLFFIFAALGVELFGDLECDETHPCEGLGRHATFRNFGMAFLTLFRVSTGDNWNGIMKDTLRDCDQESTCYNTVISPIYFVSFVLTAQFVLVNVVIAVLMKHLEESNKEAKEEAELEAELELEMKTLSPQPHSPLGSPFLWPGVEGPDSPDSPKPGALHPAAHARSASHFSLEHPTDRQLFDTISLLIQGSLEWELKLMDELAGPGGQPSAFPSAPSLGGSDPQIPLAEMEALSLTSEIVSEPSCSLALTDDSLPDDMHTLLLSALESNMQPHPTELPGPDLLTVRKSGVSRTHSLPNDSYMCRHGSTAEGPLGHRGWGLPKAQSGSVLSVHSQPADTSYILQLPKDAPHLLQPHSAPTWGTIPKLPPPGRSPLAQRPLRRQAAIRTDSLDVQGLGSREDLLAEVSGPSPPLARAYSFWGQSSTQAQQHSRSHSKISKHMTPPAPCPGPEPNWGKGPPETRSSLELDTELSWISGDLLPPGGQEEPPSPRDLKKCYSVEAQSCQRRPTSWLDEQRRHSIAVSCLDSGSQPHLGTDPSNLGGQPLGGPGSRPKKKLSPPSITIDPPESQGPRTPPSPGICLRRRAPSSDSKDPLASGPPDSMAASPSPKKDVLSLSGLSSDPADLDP
Method: as §1, §2

T1 sequence (Q9P0X4 whole entry, species assumed): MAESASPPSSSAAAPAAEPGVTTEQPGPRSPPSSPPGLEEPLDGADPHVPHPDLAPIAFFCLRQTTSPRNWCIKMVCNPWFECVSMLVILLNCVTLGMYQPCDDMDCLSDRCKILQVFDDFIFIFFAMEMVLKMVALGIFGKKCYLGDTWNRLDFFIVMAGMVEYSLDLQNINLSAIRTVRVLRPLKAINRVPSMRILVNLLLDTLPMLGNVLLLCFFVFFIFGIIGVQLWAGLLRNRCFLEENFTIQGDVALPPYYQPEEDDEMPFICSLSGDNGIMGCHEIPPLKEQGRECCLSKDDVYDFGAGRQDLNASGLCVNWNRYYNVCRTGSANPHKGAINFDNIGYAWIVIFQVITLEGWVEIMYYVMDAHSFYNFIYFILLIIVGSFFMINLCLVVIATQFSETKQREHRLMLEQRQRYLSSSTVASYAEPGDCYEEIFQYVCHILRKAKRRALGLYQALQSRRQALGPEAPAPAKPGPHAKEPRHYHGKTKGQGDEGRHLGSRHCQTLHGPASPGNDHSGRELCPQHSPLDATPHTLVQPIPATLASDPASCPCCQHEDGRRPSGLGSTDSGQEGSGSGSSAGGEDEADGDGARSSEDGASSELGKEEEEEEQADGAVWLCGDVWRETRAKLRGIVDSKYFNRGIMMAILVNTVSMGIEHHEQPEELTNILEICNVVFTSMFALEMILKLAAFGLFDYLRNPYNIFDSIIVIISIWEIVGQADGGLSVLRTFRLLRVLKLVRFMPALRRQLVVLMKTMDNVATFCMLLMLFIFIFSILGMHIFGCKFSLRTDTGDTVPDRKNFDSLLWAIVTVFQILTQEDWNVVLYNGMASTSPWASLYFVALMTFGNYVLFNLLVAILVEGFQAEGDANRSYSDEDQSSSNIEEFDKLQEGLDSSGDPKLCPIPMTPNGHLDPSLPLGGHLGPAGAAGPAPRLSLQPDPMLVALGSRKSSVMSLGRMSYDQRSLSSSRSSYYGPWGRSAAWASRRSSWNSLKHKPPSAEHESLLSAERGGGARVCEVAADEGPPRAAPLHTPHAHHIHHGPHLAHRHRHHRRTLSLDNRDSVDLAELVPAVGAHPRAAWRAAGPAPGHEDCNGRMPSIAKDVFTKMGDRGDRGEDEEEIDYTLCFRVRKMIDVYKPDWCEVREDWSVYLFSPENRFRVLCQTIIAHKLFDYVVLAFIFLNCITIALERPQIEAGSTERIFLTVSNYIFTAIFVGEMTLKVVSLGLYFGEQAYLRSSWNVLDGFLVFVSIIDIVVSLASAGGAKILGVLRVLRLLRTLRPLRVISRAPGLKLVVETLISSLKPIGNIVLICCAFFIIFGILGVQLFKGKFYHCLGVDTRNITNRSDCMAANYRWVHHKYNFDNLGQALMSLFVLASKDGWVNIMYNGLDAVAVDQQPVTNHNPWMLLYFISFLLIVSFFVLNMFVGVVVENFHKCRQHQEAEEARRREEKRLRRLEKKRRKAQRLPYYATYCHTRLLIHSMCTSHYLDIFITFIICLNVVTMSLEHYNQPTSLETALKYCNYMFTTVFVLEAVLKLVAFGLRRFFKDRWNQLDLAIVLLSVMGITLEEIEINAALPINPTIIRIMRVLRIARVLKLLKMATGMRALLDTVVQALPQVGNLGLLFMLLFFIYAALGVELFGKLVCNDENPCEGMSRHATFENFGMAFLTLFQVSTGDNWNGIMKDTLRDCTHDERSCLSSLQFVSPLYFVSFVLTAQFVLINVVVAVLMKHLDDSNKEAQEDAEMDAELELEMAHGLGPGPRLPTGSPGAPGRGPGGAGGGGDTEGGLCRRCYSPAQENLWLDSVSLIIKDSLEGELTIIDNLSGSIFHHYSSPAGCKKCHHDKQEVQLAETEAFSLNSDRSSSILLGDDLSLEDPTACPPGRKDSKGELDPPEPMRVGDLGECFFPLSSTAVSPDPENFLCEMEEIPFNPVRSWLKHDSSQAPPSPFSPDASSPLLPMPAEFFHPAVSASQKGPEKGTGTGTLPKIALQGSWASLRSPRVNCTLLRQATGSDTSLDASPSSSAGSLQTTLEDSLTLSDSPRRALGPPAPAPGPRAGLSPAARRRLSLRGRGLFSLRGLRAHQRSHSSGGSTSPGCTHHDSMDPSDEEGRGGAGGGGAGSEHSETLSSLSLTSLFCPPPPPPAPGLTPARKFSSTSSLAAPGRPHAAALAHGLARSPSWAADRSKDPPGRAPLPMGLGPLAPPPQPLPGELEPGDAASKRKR

| SMILES | pIC50 (Cav3.3) | latency to seizures [1] | fatality latency [1] | fatality rate [1] | pIC50 (Cav3.1) |
| --- | --- | --- | --- | --- | --- |
| CC(C)(C)NC(=O)CN1CCC2(CC1)C[C@H]2NC(=O)c1cc(F)cc(C(F)(F)F)c1 (single isomer, unassigned) [Example 130, (R)—N-(6-(2-(tert-Butylamino)-2-oxoethyl)-6-azaspiro[2.5]octan-1-yl)-3-fluoro-5-(trifluoromethyl)benzamide or (S)—N-(6-(2-(tert-Butylamino)-2-oxoethyl)-6-azaspiro[2.5]octan-1-yl)-3-fluoro-5-(trifluoromethyl)benzamide] | 6.55 | significantly prolonged latencies to seizures | prolonged fatality latencies | decreased the fatality rate | 6.96 |
| CC(C)(C)NC(=O)CN1CCC2(CC1)C[C@H]2NC(=O)c1cc(Cl)cc(Cl)c1 (single isomer, unassigned) [Example 57, (R)—N-(6-(2-(tert-Butylamino)-2-oxoethyl)-6-azaspiro[2.5]octan-1-yl)-3,5-dichlorobenzamide or (S)—N-(6-(2-(tert-Butylamino)-2-oxoethyl)-6-azaspiro[2.5]octan-1-yl)-3,5-dichlorobenzamide] | 7.01 | significantly prolonged latencies to seizures | prolonged fatality latencies | decreased the fatality rate | 6.89 |
| CC(C)(C)NC(=O)CN1CCC2(CC1)C[C@H]2C(=O)Nc1cc(C(F)(F)F)cc(C(F)(F)F)c1 (single isomer, unassigned) [Example 132, (R)—N-(3,5-Bis(trifluoromethyl)phenyl)-6-(2-(tert-butylamino)-2-oxoethyl)-6-azaspiro[2.5]octane-1-carboxamide or (S)—N-(3,5-Bis(trifluoromethyl)phenyl)-6-(2-(tert-butylamino)-2-oxoethyl)-6-azaspiro[2.5]octane-1-carboxamide] | 5.12 | significantly prolonged latencies to seizures | prolonged fatality latencies | decreased the fatality rate | 6.92 |
| CC(C)(C)CCN1CCC2(CC1)C[C@H]2NC(=O)c1cc(C(F)(F)F)cc(C(F)(F)F)c1 (single isomer, unassigned) [Example 146, (R)—N-(6-(3,3-dimethylbutyl)-6-azaspiro[2.5]octan-1-yl)-3,5-bis(trifluoromethyl)benzamide or (S)—N-(6-(3,3-dimethylbutyl)-6-azaspiro[2.5]octan-1-yl)-3,5-bis(trifluoromethyl)benzamide] | 6.96 | significantly prolonged latencies to seizures | prolonged fatality latencies | decreased the fatality rate | 6.92 |
| CC(C)(C)NC(=O)CN1CCC2(CC1)C[C@H]2NC(=O)c1cc(F)cc(Cl)c1 (single isomer, unassigned) [Example 129, (R)—N-(6-(2-(tert-Butylamino)-2-oxoethyl)-6-azaspiro[2.5]octan-1-yl)-3-chloro-5-fluorobenzamide or (S)—N-(6-(2-(tert-Butylamino)-2-oxoethyl)-6-azaspiro[2.5]octan-1-yl)-3-chloro-5-fluorobenzamide] | 5.79 | significantly prolonged latencies to seizures | prolonged fatality latencies | decreased the fatality rate | 5.98 |
| CC(C)(C)NC(=O)CN1CCC2(CC1)CC2NC(=O)c1cc(F)cc(Cl)c1 (stereo not drawn) [Example 17, N-(6-(2-(tert-Butylamino)-2-oxoethyl)-6-azaspiro[2.5]octan-1-yl)-3-chloro-5-fluorobenzamide] | 6.54 | significantly prolonged latencies to seizures | prolonged fatality latencies | decreased the fatality rate | 6.54 |
